Experiments:
[1] = test system: Cryptococcus neoformans ATCC 90113; assay: Antimicrobial microdilution assay against Cryptococcus neoformans (modified CLSI/NCCLS, optical density); format: cell-based; details: for X more potent than Amphotericin B: C. neoformans, ratio of molar IC50 to Amphotericin B; for C. neoformans IC50 / IC50: in vitro, C. neoformans ATCC 90113; for IC50: read-out: C. neoformans IC50 (mol/L)
How it was run: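 Fungicidal endpoint taken by subculturing 5 μL from each clear well onto agar, MFC being the lowest concentration with no regrowth. Duplicate wells of serially diluted compound (20% DMSO/saline) in RPMI pH 6.0, read at 630 nm pre- and post-incubation, under modified CLSI methods. IC50 means 50% growth inhibition against controls.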

C. krusei ATCC 6258 = assay: Antifungal broth dilution assay against C. krusei (modified CLSI); format: cell-based, Candida krusei; details: for X more potent than Amphotericin B: C. krusei, ratio of molar IC50 to amphotericin B; for C. krusei IC50 / IC50: in vitro; for IC50: read-out: C. krusei IC50 (mol/L)
How it was run: (§1)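 Growth read by optical density at 530 nm, duplicate wells, 1% final DMSO. Staphylococcus spp.: Mueller-Hinton pH 7.3, 5.0×10^5 CFU/ml, 35 °C for 16-20 h; Candida spp.: RPMI/dextrose/glutamine/MOPS pH 6.0, 1.5×10^3 CFU/ml, 35 °C for 46-50 h. Reported values are 50% inhibition versus controls, no-growth MIC, and killing MFC/MBC.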

C. glabrata ATCC 90030 = assay: Antifungal broth dilution assay against C. glabrata (modified CLSI); format: cell-based, Candida glabrata; details: for C. glabrata IC50 / IC50: in vitro; for IC50: converted with molecular weight; for X more potent than Amphotericin B: molar IC50 ratio versus amphotericin B
How it was run: as §1

[2] = test system: S. mansoni newly transformed schistosomula (NTS); assay: In vitro testing on Schistosoma mansoni newly transformed schistosomula (NTS), viability score; format: cell-based; details: 72 h
How it was run: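 Mechanically transformed S. mansoni (Liberian strain) NTS, cultured overnight, exposed at 100 per well to compound (from 10 mM DMSO stock; ≤1% DMSO controls) at 37 °C, 5% CO2 for 72 h. Viability scored microscopically from 3 (normal activity, intact tegument) to 0 (dead, granulated).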

[3] = test system: Staphylococcus aureus ATCC 29213; assay: Antibacterial broth dilution assay against S. aureus (modified CLSI); format: cell-based; details: for S. aureus IC50 / IC50: in vitro; for IC50: converted with molecular weight; for X more potent than ciprofloxacen: molar IC50 ratio versus ciprofloxacen
How it was run: as §1

[4] = test system: methicillin-resistant S. aureus ATCC 33591 (MRS); assay: Antibacterial broth dilution assay against MRSA (modified CLSI); format: cell-based, Staphylococcus aureus; details: for MRSa IC50 / IC50: in vitro; for IC50: converted with molecular weight; for X more potent than ciprofloxacen: molar IC50 ratio versus ciprofloxacen
How it was run: as §1

[5] = test system: L. donovani promastigotes; assay: Antileishmanial Alamar Blue assay on promastigotes; format: cell-based, Leishmania donovani; details: for X more potent than Pentamidine: L. donovani, ratio of molar IC50 to Pentamidine; for L. donovani IC50 / IC50: promastigotes, 48 hours, Alamar Blue; for IC50: read-out: L. donavani IC50
How it was run: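 Alamar Blue fluorescence (544/590 nm) quantified growth after 48 hours at 26° C of compound-treated promastigotes. Parasites were seeded at 5×10^5/mL in RPMI 1640 plus 10% FCS; drug range 50-3.1 μg/mL, and IC50 derived by plotting percent growth against test concentration.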

[6] = test system: Plasmodium falciparum D6 clone (Sierra Leon, chloroquine-sensitive); assay: In vitro antimalarial assay, chloroquine-sensitive D6 clone; format: cell-based; details: D6 clone; for IC50: converted with molecular weight, read-out: P. falciparum D6 IC50; for X more potent than chloroquine: molar IC50 ratio versus chloroquine
Protocol: (§2) The compounds were assayed for in vitro antimalarial activity against the W2 clone and D6 clone of the pathogenic Plasmodium falciparum. The strains of P. falciparum were obtained from the Division of Experimental Therapeutics, Walter Reed Army Institute of Research, Washington D.C. Strains of Sierra Leon D6 and Indochina W2 are chloroquine-sensitive and chloroquine-resistant, respectively. The parasite was grown in type A human RBCs and, two strains subcultured daily with fresh medium and blood cells. On the day of the assay, a suspension of infected blood cells (2% parasitemia and 2% hematocrit) was prepared using type A human red blood cells. Assays were performed by standard 96-well flat-bottomed microplate methods and done in duplicate at different concentrations. IC50 values were obtained from the dose curves. Artemisinin and chloroquine were included in each assay as the drug controls, and DMSO was used as vehicle control. The whole protocol was developed based on the published method of Makler. The cytotoxicity assays were also performed in parallel against the Vero cells, and the selectivity index was measured. A selectivity index of >9 was considered to indicate a lead for further development of antimalarial drug.

[7] = test system: Plasmodium falciparum W2 clone (Indochina, chloroquine-resistant); assay: In vitro antimalarial assay, chloroquine-resistant W2 clone; format: cell-based; details: W2 clone; for IC50: converted with molecular weight, read-out: P. falciparum W2 IC50; for X more potent than chloroquine: molar IC50 ratio versus chloroquine
Protocol: as §2

Row | Compound | X more potent than Amphotericin B [1] | C. neoformans IC50 [1] [µg/mL] | IC50 [1] [nM] | X more potent than Amphotericin B (C. krusei ATCC 6258) | C. krusei IC50 (C. krusei ATCC 6258) [µg/mL] | IC50 (C. krusei ATCC 6258) [nM] | C. glabrata IC50 (C. glabrata ATCC 90030) [µg/mL] | IC50 (C. glabrata ATCC 90030) [nM] | X more potent than Amphotericin B (C. glabrata ATCC 90030) | Effect at 72 h (%) ([2]; NTS S. mansoni, 33 μM) | S. aureus IC50 [3] [µg/mL] | X more potent than ciprofloxacen [3] | MRSa IC50 [4] [µg/mL] | X more potent than ciprofloxacen [4] | X more potent than Pentamidine [5] | L. donovani IC50 [5] [µg/mL] | IC50 [5] [nM] | P. falciparum D6 IC50 [6] [µg/mL] | IC50 [6] [nM] | X more potent than chloroquine [6] | other results
1 | CC(=O)[O-].CC(=O)[O-].CC(=O)[O-].F[P-](F)(F)(F)(F)F.F[P-](F)(F)(F)(F)F.F[P-](F)(F)(F)(F)F.[Co+2].[Co+2].[Co+2].c1c(CN2CCNCCN3CCN(CC3)CC2)cc(CN2CCNCCN3CCN(CC3)CC2)cc1CN1CCNCCN2CCN(CC2)CC1 [CDG021, [Co3(tris-SB-Cyclens)(OAc)3][PF6]3] | 0.45 | ≤ 0.800 | 534 | 0.53 | 4.200 | 2800 | 0.800 | 534 | 2.66 | 11.71 | – | – | – | – | – | – | – | – | – | – | times more potent than AMB (C. glabrata ATCC 90030): 2.66
2 | CC(=O)[O-].CC(=O)[O-].CN1CCCN2CCN(CCCN(Cc3cccc(CN4CCCN5CCN(C)CCCN(CC5)CC4)c3)CC2)CC1.F[P-](F)(F)(F)(F)F.F[P-](F)(F)(F)(F)F.[Ni+2].[Ni+2] [CDG009, [Ni2(m-CB-Cyclams)(OAc)2][PF6]2] | 0.07 | 3.530 | 3180 | – | – | – | 5.150 | 4650 | 0.31 | 0.00 | 6.27 | 0.05 | 5.410 | 0.04 | – | – | – | – | – | – | IC50 [3]: 5660 nM; IC50 [4]: 4880 nM
3 | CC(=O)[O-].F[P-](F)(F)(F)(F)F.[Ni+2].c1ccc(CN2CCCN3CCN(CCCN(Cc4ccccc4)CC3)CC2)cc1 [TC09, [Ni(Bn2Bcyclam)(OAc)]PF6] | – | – | – | 0.22 | 4.520 | 6750 | – | – | – | 43.24 | – | – | – | – | 0.55 | 6.51 | 9730 | 0.552 | 825 | 0.04 | P. falciparum W2 IC50 [7]: 0.8876 µg/mL; IC50 [7]: 1330 nM; X more potent than chloroquine [7]: 0.51
4 | [Cl-].[Cl-].[Mn+2].c1ccc(CN2CCN3CCN(CC2)CCN(Cc2ccccc2)CC3)cc1 [NS29, Mn(Bn2Bcyclen)Cl2] | – | – | – | – | – | – | – | – | – | 43.24 | 5.880 | 0.02 | 5.750 | 0.02 | 0.35 | 7.70 | 15300 | 0.1337 | 265 | 0.14 | P. falciparum W2 IC50 [7]: 0.2747 µg/mL; IC50 [7]: 545 nM; X more potent than chloroquine [7]: 1.25; IC50 [3]: 11700 nM; IC50 [4]: 11400 nM
5 | CC(=O)[O-].CC(=O)[O-].CN1CCCN2CCN(CCCN(Cc3cccc(CN4CCCN5CCN(C)CCCN(CC5)CC4)c3)CC2)CC1.F[P-](F)(F)(F)(F)F.F[P-](F)(F)(F)(F)F.[Zn+2].[Zn+2] [RM51, [Zn2(m-CB-Cyclams)(OAc)2][PF6]2] | 0.14 | 1.850 | – | – | – | – | – | – | – | 0.00 | 6.17 | 0.05 | 3.190 | 0.07 | 0.30 | 19.82 | – | – | – | – | –
6 | CC(=O)[O-].CC(=O)[O-].CC(=O)[O-].CN1CCN2CCN(CC1)CCN(Cc1cc(CN3CCN4CCN(C)CCN(CC4)CC3)cc(CN3CCN4CCN(C)CCN(CC4)CC3)c1)CC2.F[P-](F)(F)(F)(F)F.F[P-](F)(F)(F)(F)F.F[P-](F)(F)(F)(F)F.F[P-](F)(F)(F)(F)F.F[P-](F)(F)(F)(F)F.F[P-](F)(F)(F)(F)F.[Co+3].[Co+3].[Co+3] [BNS20, [Co3(tris-CB-Cyclens)(OAc)3][PF6]6] | 0.47 | 1.000 | 506 | – | 0.980 | 496 | 4.720 | 2390 | 0.59 | 18.02 | – | – | – | – | – | – | – | – | – | – | –
7 | CN1CCN2CCN(CC1)CCN(Cc1cc(CN3CCN4CCN(C)CCN(CC4)CC3)cc(CN3CCN4CCN(C)CCN(CC4)CC3)c1)CC2 [BNS017, tris-CB-cyclens] | 2.56 | 0.070 | 93.2 | 0.19 | 5.850 | 7790 | – | – | – | 0.00 | – | – | – | – | 0.16 | 25.46 | 33900 | – | – | – | –
8 | c1ccc(CN2CCCN3CCN(CCCN(Cc4ccccc4)CC3)CC2)cc1 [JGL45, Bn2Bcyclam] | – | – | – | – | – | – | – | – | – | 81.08 | – | – | – | – | 0.55 | 3.94 | 9690 | 1.0894 | 2680 | 0.01 | P. falciparum W2 IC50 [7]: 0.1772 µg/mL; IC50 [7]: 436 nM; X more potent than chloroquine [7]: 1.56; Effect at 72 h (%) ([2]; NTS S. mansoni at 10 μM): 44.83%
9 | CC(=O)[O-].CC(=O)[O-].CN1CCCN2CCN(CCCN(Cc3ccc(CN4CCCN5CCN(C)CCCN(CC5)CC4)cc3)CC2)CC1.F[P-](F)(F)(F)(F)F.F[P-](F)(F)(F)(F)F.[Cu+2].[Cu+2] [TJH384A, [Cu2(p-CB-cyclams)(OAc)2](PF6)2] | 0.38 | 0.700 | 626 | 0.25 | 6.760 | 6050 | 14.590 | 13000 | 0.11 | 5.41 | – | – | – | – | – | – | – | – | – | – | –
